The source of these data is ChEMBL document CHEMBL2029320 (J Med Chem, 2012).

The target of experiment [1] is T1, Relaxin-3 receptor 1 (Homo sapiens, UniProt Q9NSD7).
T1 sequence (Q9NSD7 whole entry): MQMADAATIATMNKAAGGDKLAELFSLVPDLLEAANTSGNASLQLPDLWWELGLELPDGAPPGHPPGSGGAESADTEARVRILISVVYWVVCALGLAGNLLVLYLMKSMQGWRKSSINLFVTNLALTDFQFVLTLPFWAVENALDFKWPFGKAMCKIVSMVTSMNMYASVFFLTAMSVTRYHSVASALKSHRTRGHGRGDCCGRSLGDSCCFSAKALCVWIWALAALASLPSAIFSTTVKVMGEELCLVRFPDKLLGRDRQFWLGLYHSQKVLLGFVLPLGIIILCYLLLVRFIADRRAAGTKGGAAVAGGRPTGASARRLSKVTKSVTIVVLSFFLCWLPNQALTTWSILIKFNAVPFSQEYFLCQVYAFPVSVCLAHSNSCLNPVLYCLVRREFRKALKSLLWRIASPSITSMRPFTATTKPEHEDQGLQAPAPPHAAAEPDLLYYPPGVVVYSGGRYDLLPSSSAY
The experiment is described as follows: Displacement of europium-labelled H3 relaxin-B chain/INSL-5 chain from RXFP3 expressed in CHO-K1 cells. The format is cell-based.

For experiment [2], the target named is T1, Relaxin-3 receptor 1. The experiment is described as follows: Agonist activity at RXFP3 expressed in CHO-K1 cells assessed as inhibition of forskolin-induced cAMP accumulation after 6 hrs by beta galactosidase reporter gene assay. In kind it is functional, cell-based.
In a further experiment the target is T2, Relaxin receptor 1 (Homo sapiens, UniProt Q9HBX9).
T2 sequence (Q9HBX9 whole entry): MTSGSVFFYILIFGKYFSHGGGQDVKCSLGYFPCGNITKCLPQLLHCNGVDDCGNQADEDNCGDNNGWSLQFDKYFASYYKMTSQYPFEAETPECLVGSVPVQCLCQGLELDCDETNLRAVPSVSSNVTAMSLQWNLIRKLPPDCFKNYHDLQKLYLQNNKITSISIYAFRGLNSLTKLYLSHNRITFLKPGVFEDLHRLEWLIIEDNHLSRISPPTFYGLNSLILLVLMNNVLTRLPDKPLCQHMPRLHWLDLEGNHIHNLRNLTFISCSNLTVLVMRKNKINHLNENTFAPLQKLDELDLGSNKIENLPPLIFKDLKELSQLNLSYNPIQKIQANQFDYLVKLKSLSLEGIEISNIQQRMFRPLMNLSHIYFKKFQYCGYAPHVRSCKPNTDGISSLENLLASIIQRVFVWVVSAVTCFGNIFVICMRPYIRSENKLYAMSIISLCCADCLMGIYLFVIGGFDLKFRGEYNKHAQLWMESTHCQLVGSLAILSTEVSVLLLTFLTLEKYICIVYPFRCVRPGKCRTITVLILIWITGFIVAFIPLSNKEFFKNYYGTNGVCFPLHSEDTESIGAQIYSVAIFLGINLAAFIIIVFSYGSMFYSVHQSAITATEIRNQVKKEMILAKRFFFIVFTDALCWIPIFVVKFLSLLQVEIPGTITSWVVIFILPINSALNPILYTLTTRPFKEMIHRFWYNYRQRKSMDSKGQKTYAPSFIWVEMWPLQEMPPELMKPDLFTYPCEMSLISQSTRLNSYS
The experiment is described as follows: Displacement of europium-labelled H2 relaxin from RXFP1 expressed in HEK-293T cells. The format is cell-based.

For the next experiment, the target named is Relaxin-3 receptor 2 (Homo sapiens, UniProt Q8TDU9). The experiment is described as follows: Agonist activity at RXFP4 expressed in CHO-K1 cells assessed as inhibition of forskolin-induced cAMP accumulation after 6 hrs by beta galactosidase reporter gene assay. The format is functional, cell-based. (cAMP levels reflect the balance of adenylyl cyclase and phosphodiesterase activity.)
Relaxin-3 receptor 2, sequence (Q8TDU9 whole entry): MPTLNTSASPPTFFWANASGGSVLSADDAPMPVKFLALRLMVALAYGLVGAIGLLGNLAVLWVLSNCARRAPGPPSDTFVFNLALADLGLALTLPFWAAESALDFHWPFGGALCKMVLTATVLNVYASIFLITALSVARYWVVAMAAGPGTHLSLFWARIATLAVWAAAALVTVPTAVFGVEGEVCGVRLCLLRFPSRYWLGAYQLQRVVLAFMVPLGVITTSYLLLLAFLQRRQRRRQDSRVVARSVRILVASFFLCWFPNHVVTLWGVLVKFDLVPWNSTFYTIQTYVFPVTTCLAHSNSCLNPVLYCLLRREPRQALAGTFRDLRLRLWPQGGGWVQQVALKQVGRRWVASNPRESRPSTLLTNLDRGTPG

By Ki is commonly meant a measure of affinity in units of concentration, obtained from inhibition or displacement. Higher therefore signals a looser hold on the target. The IC50 is the concentration at which inhibition is half-maximal. Consider `CC[C@H](C)[C@@H]1NC(=O)[C@H](Cc2ccccc2)NC(=O)[C@H](CCC(=O)O)NC(=O)[C@H](CCCN=C(N)N)NC(=O)CNC(=O)[C@@H](NC(=O)[C@H](CC(C)C)NC(=O)[C@@H](N)CCCN=C(N)N)CSSC[C@H](N)C(=O)N[C@@H](CCCCN)C(=O)N[C@@H](Cc2c[nH]c3ccccc23)C(=O)NCC(=O)N[C@@H](C)C(=O)N[C@@H](CO)C(=O)N[C@@H](CCCCN)C(=O)N[C@@H](CO)C(=O)N[C@@H](CCC(=O)O)C(=O)N[C@@H]([C@@H](C)CC)C(=O)N[C@@H](CO)C(=O)N[C@@H](CO)C(=O)N[C@@H](CC(C)C)C(=O)N[C@H](C(=O)O)CSSC[C@@H](C(=O)NCC(=O)NCC(=O)N[C@@H](CO)C(=O)N[C@@H](CCCN=C(N)N)C(=O)N[C@@H](Cc2c[nH]c3ccccc23)C(=O)O)NC(=O)[C@H]([C@@H](C)O)NC(=O)[C@H](Cc2ccccc2)NC(=O)[C@H]([C@@H](C)CC)NC(=O)[C@H](C(C)C)NC(=O)[C@H](C)NC(=O)[C@H](CCCN=C(N)N)NC1=O`, for which the values for the Ki at Relaxin-3 receptor 1 [1] and on Relaxin receptor 1 were 112 nM and over 10 µM, respectively. The 50% inhibitory concentration (IC50) is 5.13 nM at Relaxin-3 receptor 1 [2] and 7.94 nM on Relaxin-3 receptor 2.
